Results reported in US20110136193A1, “METHOD FOR PRODUCING BUTANOL USING EXTRACTIVE FERMENTATION WITH OSMOLYTE ADDITION” (BUTAMAX(TM) ADVANCED BIOFUELS LLC, priority 2009, published 2011).

B1: sadB: butanol dehydrogenase from Achromobacter xylosoxidans (protein SEQ ID NO: 10), expressed in E. coli Mach 1 cells (protein)
chain: MKALVYHGDHKISLEDKPKPTLQKPTDVVVRVLKTTICGTDLGIYKGKNPEVADGRILGHEGVGVIEEVGESVTQFKKGDKVLISCVTSCGSCDYCKKQLYSHCRDGGWILGYMIDGVQAEYVRIPHADNSLYKIPQTIDDEIAVLLSDILPTGHEIGVQYGNVQPGDAVAIVGAGPVGMSVLLTAQFYSPSTIIVIDMDENRLQLAKELGATHTINSGTENVVEAVHRIAAEGVDVAIEAVGIPATWDICQEIVKPGAHIANVGVHGVKVDFEIQKLWIKNLTITTGLVNTNTTPMLMKVASTDKLPLKKMITHRFELAEIEHAYQVFLNGAKEKAMKIILSNAGAA
modifications: Achromobacter xyloxidans

Legend:
[1] = Kp of isobutanol in an oleyl alcohol/aqueous system (general statement); format: physicochemical; settings: no added osmolyte
Description: Addition of organic extractants like oleyl alcohol into the fermentor during the production stage extracts butanol from the aqueous phase which alleviates its inhibitory effect on the microorganism resulting in higher rate and titer of isobutanol fermentation. Fermentation rate in this two phase system also slows down once the aqueous phase concentration of isobutanol reaches an inhibitory threshold level. In the presence of the extractant (oleyl alcohol) in the fermentor, the aqueous concentration of isobutanol is dictated by the partitioning coefficient (Kp) of isobutanol between the two phases. In the case of an oleyl alcohol/aqueous system, Kp is in the range of 3.5-4.5. A significant increase in isobutanol rate and titer can be achieved if Kp for isobutanol can be increased during fermentation such that the aqueous concentration of isobutanol drops below the inhibitory threshold level.

[2] = Partition coefficient (Kp) of isobutanol between oleyl alcohol extractant and sucrose-supplemented basal fermentation medium; format: physicochemical; settings: oleyl alcohol / BFM, 30° C.
Experimental: The purpose of this Example was to evaluate the effect of sucrose concentrations in the fermentation medium on the partition coefficient (Kp) of isobutanol when oleyl alcohol was used as the extractant. The basal fermentation medium (BFM) typically used in E. coli fermentations was used as the fermentation medium in this Example.
The following experimental procedure was used to generate the data in Table 3. In these Kp measurement experiments, a specified amount of sucrose was added as an osmolyte to the basal fermentation medium. To 30 mL of the sucrose-supplemented BFM, 10 mL of isobutanol rich oleyl alcohol (OA) extractant containing 168 g/L of isobutanol was added and mixed vigorously for 4 and 8 hours at 30° C. with shaking at 250 rpm in a table top shaker (Innova 4230, New Brunswick scientific, Edison, N.J.) to reach equilibrium between the two phases. The aqueous and organic phases in each flask were separated by decantation. The aqueous phase was centrifuged (2 minutes on 13,000 rpm with an Eppendorf centrifuge model 5415R) to remove residual extractant phase and the supernatant analyzed for glucose and isobutanol by HPLC.
Partition coefficients (Kp) for isobutanol distribution between the organic and aqueous phases were calculated from the known amount of isobutanol added to the flask and the isobutanol concentration data measured in the aqueous phase. The concentration of isobutanol in the extractant phase was determined by mass balance. The partition coefficient was determined as the ratio of isobutanol concentration in the organic and the aqueous phase, i.e., Kp=[Isobutanol]Organic phase/[isobutanol]Aqueous phase. Each data point corresponding to a specified level of sucrose as shown in Table 3 was repeated twice and values for Kp reported as the average of the two flasks.

[3] = Activity of the enzyme expressed from the sadB gene in cell-free extracts; format: biochemical; settings: cell-free extracts of E. coli Mach1/pTrc99a::sadB; isobutyraldehyde as the standard
Experimental: The sadB coding region was then cloned into the vector pTrc99a (Amann et al., Gene 69: 301-315, 1988). The pCR4Blunt::sadB was digested with EcoRI, releasing the sadB fragment, which was ligated with EcoRI-digested pTrc99a to generate pTrc99a::sadB. This plasmid was transformed into E. coli Mach 1 cells and the resulting transformant was named Mach1/pTrc99a::sadB. The activity of the enzyme expressed from the sadB gene in these cells was determined to be 3.5 mmol/min/mg protein in cell-free extracts when analyzed using isobutyraldehyde as the standard.

Molecule | partitioning coefficient (Kp) of isobutanol between the two phases [1] | Kp ([2]; sucrose added 0 moles/L, total sugars 0.17 moles/L) | Kp ([2]; sucrose added 0.03 moles/L, total sugars 0.20 moles/L) | Kp ([2]; sucrose added 0.09 moles/L, total sugars 0.26 moles/L) | Kp ([2]; sucrose added 0.17 moles/L, total sugars 0.34 moles/L) | Kp ([2]; sucrose added 0.26 moles/L, total sugars 0.43 moles/L) | Kp ([2]; sucrose added 0.33 moles/L, total sugars 0.50 moles/L) | Kp ([2]; sucrose added 0.51 moles/L, total sugars 0.68 moles/L) | Kp ([2]; sucrose added 0.67 moles/L, total sugars 0.84 moles/L) | Kp ([2]; sucrose added 1.00 moles/L, total sugars 1.17 moles/L) | Kp ([2]; sucrose added 1.33 moles/L, total sugars 1.50 moles/L) | Kp ([2]; sucrose added 2.00 moles/L, total sugars 2.17 moles/L) | activity of the enzyme expressed from the sadB gene [3] [mmol/min/mg protein]
CC(C)CO [isobutanol] | 3.5-4.5 | 4.35 | 4.44 | 4.41 | 4.60 | 4.69 | 5.09 | 5.21 | 5.85 | 6.85 | 7.77 | 10.69 | 
B1 |  |  |  |  |  |  |  |  |  |  |  |  | 3.5
